PMC8219027, “A small-molecule inhibitor of the BRCA2-RAD51 interaction modulates RAD51 assembly and potentiates DNA damage-induced cell death” (Cell Chemical Biology, 2021)
In brackets after ≈: the same amount, converted by molar mass.

Key:
[1] = Mouse iv pharmacokinetics; settings: male, CD-1, mouse, in vivo, 1 mg/kg
BT549 = experiment: cells; settings: Homo sapiens, BT-549, read-out: Absolute EC50, growth inhibition
PANC1 = experiment: cells; settings: Homo sapiens, PANC-1, read-out: Absolute EC50, growth inhibition
A2780 = experiment: cells; settings: Homo sapiens, A2780, read-out: Absolute EC50, growth inhibition
SCaBER = experiment: cells; settings: Homo sapiens, read-out: Absolute EC50, growth inhibition
RT112/84 = experiment: cells; settings: Homo sapiens, RT112/84, read-out: Absolute EC50, growth inhibition
BT20 = experiment: cells; settings: Homo sapiens, BT-20, read-out: Absolute EC50, growth inhibition
[2] = Microsomal intrinsic clearance; settings: mouse, mouse microsomes
U87 = experiment: cells; settings: Homo sapiens, U-87 MG, read-out: Absolute EC50, growth inhibition
hERG = hERG (Homo sapiens, UniProt Q12809); experiment: hERG electrophysiology (whole-cell voltage-clamping); settings: @ 10 uM, whole-cell voltage-clamping in mammalian cells
Chain of hERG (Q12809 whole entry): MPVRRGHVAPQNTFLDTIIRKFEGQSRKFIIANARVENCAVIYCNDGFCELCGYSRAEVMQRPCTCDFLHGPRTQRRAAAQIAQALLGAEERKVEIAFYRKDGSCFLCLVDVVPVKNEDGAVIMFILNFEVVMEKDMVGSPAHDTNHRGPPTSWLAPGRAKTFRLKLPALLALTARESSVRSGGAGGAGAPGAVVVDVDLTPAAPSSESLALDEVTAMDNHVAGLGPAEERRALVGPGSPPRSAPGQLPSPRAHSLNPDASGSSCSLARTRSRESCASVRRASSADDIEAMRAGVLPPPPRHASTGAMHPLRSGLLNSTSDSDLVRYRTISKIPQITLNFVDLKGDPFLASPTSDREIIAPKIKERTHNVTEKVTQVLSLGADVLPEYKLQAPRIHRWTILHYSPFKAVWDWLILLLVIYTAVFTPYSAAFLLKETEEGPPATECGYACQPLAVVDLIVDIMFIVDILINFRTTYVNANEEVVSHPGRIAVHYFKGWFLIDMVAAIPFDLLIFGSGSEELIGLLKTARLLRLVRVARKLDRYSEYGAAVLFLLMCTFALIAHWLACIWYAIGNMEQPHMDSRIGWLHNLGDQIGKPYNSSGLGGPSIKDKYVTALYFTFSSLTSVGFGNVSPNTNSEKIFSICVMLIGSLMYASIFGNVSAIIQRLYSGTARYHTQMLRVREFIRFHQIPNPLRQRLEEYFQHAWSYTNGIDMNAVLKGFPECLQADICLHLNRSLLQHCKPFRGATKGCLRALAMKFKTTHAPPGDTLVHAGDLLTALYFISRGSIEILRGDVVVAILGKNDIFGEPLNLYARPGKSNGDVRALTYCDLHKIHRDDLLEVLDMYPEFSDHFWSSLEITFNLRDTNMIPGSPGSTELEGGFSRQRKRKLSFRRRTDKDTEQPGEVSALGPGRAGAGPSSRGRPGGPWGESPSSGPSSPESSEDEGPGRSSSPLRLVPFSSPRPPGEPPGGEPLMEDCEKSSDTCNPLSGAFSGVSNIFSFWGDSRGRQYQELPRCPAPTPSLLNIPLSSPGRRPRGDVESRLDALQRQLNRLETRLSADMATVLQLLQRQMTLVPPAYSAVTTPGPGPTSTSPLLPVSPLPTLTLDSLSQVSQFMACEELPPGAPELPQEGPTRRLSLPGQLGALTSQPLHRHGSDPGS

γH2AX foci in A549 cells = experiment: γH2AX foci, Cellomics ArrayScan high-content microscopy; assay type: cell-based, human; settings: 50 μM, 24 h after exposure to IR
Description: We tested this prediction by monitoring RAD51 foci formation after the exposure of A549 non-small cell lung carcinoma (NSCLC) cells to ionizing radiation (IR), using a robust cell-based assay based on high-content microscopy with the Cellomics ArrayScan V^TI, to objectively enumerate RAD51 foci ([Jeyasekharan et al., 2013]). IR-induced DNA breakage was monitored in the same experiment by enumerating foci containing γH2AX, a phosphorylated form of histone H2AX that is formed at DNA breaks ([Rogakou et al., 1998]).
For detection of γH2AX foci in A549 cells, 10,000 cells/well (1x10^5 cells/ml) were seeded in 100 μl and left to grow overnight before treatment with compound. Cells were subsequently exposed to compounds and either 3 Gy ionising radiation or mock treated (left on the bench at room temperature). Staining protocol was identical as for RAD51 foci but anti-phospho γH2AX primary mouse monoclonal antibody was used (Millipore, cat#05-636) at 1:2000 dilution. Image analysis was done using Cellomics software.

OVCAR3 = experiment: cells; settings: Homo sapiens, OVCAR-3, read-out: Absolute EC50, growth inhibition
CYP450 2D6 = biological target: T1, CYP450 2D6 (Homo sapiens, UniProt P10635); experiment: CYP450 inhibition; assay type: in vitro ADME
T1 construct: Cyprotex (contract data)
T1 sequence (P10635 whole entry): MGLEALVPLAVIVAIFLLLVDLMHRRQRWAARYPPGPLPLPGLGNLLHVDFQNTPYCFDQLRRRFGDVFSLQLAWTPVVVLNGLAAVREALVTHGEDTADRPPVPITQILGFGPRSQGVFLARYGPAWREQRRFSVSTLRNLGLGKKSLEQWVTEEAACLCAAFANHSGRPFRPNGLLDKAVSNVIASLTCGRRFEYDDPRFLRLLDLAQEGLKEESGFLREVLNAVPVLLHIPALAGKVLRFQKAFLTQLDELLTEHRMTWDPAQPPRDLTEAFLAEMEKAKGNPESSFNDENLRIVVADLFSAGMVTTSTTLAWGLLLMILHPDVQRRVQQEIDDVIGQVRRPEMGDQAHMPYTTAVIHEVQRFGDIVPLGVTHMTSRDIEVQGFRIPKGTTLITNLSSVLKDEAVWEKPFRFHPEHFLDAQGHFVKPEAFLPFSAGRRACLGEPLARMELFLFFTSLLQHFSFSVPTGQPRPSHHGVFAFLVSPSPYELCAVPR

RKO = experiment: cells; settings: Homo sapiens, read-out: Absolute EC50, growth inhibition
HFL-1 = experiment: cells; settings: Homo sapiens, HFL1, read-out: Absolute EC50, growth inhibition
HCT116 = experiment: cells; settings: Homo sapiens, HCT-116, read-out: Absolute EC50, growth inhibition
SK-OV-3 = experiment: cells; settings: Homo sapiens, SK-OV-3, read-out: Absolute EC50, growth inhibition
[3] = system: HCT116 colon carcinoma cells; experiment: Cell-cycle profiling by flow cytometry (propidium iodide); assay type: cell-based, human; settings: HCT116, 20 μM CAM833 and 3 Gy IR
Description: Genetic inactivation of RAD51 enhances cellular sensitivity to ionizing radiation, accompanied by cell-cycle arrest at the G2 checkpoint for DNA damage ([Sonoda et al., 1998]; [Su et al., 2008]). We hypothesized that similar effects would be triggered by the exposure of cells to CAM833. […] Over time, there is a drop in the percentage of cells with 4N DNA in both treated and control groups. However, whereas in the control the percentage of cells in the apoptotic subG1 fraction remains below 5% throughout, in the compound-treated cells this rises progressively to peak at 15% at 48 hours (Figure 5D).
Propidium iodide staining solution (PI solution) was used at the following final concentrations: 200 ug/ml RNAase A (Sigma Aldrich, cat# 10109169001), 0.1% Triton-X 100 (v/v) and 20 ug/ml of propidium iodide solution diluted in 1x PBS. HCT116 cells were grown in 6-well plates in a total volume of 2 ml and treated with either test compound or DMSO control for the designated time. After treatment, medium was collected from the cells which were then washed in 1x PBS then removed from the plastic by the addition of in 500 μl Trypsin/EDTA until cells were monodispersed. The trypsin was neutralised by the removed media and the cell suspension was spun at 1000 rpm for 5 minutes. […] Cells were then counted and analysed using a Becton Dickinson LSR II cytometer and FCS Express software.

U118MG = experiment: cells; settings: Homo sapiens, U-118-MG, read-out: Absolute EC50, growth inhibition
T24/83 = experiment: cells; settings: Homo sapiens, T24/83, read-out: Absolute EC50, growth inhibition
5637 = experiment: cells; settings: Homo sapiens, read-out: Absolute EC50, growth inhibition
T.Tn = experiment: cells; settings: Homo sapiens, read-out: Absolute EC50, growth inhibition
HUVEC = experiment: cells; settings: Homo sapiens, read-out: Absolute EC50, growth inhibition
U20S = experiment: cells; settings: Homo sapiens, read-out: Absolute EC50, growth inhibition

COc1ccc([C@H](C)NC(=O)[C@@H]2C[C@@H](O)CN2C(=O)CNC(=O)c2ccc3cc(F)ccc3n2)c(Cl)c1 [CAM833, N-(2-((2S,4R)-2-(((S)-1-(2-chloro-4-methoxyphenyl)ethyl)carbamoyl)-4-hydroxypyrrolidin-1-yl)-2-oxoethyl)-6-fluoroquinoline-2-carboxamide]
Vd [1]: 2.51 L/kg | clearance [1]: 44.6 mL/min/kg | half-life [1]: 1.44 h | EC50 (BT549): 73.8 µM | EC50 (PANC1): 96 µM | EC50 (A2780): 46.5 µM | EC50 (SCaBER): 47 µM | EC50 (RT112/84): 70.6 µM | EC50 (BT20): 61.9 µM | half-life [2]: 0.718 h | microsomal CLint [2]: 32.2 ± 2.99 µL/min/mg | EC50 (U87): 109 µM | Inhibition of hERG tail-currents (hERG): 12% | increase of γH2AX foci formation compared with control-treated cells (γH2AX foci in A549 cells): approximately 4 fold | EC50 (OVCAR3): 53.6 µM | solubility (Aqueous solubility; pH 7.4 buffer, pH 7.4, aqueous buffer, thermodynamic from solid): 7.75 µg/mL (≈ 14.7 µM) | solubility (in words) (Aqueous solubility; summary of Table S1): moderate | IC50 (CYP450 2D6): > 25 µM | EC50 (RKO): 63.5 µM | EC50 (HFL-1): 98.8 µM | EC50 (HCT116): 63.5 µM | EC50 (SK-OV-3): 105 µM | percentage of cells with 4N DNA (in words) ([3]; 4 hours after irradiation): causes an increase | percentage of cells in the apoptotic subG1 fraction, peak ([3]; at 48 hours): 15% | EC50 (U118MG): 90.3 µM | EC50 (T24/83): 96.7 µM | EC50 5637: 84.5 µM | EC50 (T.Tn): 55.8 µM | EC50 (HUVEC): 133 µM | EC50 (U20S): 40.5 µM
